The results in this text go back to patent US9938261B2, “Heterocyclic compounds and methods of use thereof” (AMBIT BIOSCIENCES CORPORATION, priority 2011, dated 2018).

Bounds are passed on as bounds.

One experiment addresses T1, FLT3 (Homo sapiens, UniProt P36888).
T1 construct: made in house
T1 sequence (P36888 27-993): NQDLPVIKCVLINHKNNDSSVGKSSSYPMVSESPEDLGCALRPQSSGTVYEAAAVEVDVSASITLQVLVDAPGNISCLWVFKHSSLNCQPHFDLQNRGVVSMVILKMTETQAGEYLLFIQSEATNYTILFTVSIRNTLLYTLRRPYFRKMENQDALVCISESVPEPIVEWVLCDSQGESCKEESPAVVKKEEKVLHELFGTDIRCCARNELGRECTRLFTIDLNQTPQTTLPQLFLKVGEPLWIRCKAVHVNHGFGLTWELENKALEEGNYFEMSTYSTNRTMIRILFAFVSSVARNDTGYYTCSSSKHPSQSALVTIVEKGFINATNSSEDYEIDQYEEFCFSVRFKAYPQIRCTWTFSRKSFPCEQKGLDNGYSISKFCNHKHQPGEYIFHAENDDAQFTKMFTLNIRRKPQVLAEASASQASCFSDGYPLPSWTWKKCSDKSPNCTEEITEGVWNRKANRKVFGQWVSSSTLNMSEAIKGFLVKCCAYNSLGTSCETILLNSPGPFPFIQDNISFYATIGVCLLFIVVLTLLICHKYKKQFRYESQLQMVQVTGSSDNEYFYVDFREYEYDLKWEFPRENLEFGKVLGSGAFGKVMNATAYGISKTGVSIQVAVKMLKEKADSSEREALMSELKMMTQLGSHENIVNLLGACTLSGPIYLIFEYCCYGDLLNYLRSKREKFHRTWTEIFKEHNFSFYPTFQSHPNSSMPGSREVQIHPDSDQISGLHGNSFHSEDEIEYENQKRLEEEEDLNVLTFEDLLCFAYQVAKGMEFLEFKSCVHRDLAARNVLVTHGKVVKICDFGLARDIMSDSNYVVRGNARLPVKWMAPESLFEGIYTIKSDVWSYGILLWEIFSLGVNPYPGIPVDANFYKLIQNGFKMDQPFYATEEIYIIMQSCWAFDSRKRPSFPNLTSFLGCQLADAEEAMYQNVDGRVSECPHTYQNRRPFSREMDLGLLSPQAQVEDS
In words: Competition binding assay, FLT3 Kd. As to conditions: competition binding. The essentials: (§1)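 Kd values came from eleven-point threefold dilutions of compound, measured by qPCR of kinase eluted from affinity-ligand beads after 1 h equilibrium binding at room temperature. Kinase was either T7-phage fused or HEK-293-expressed with a DNA tag.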

For another experiment, the target named is T2, PDGFRβ (Homo sapiens, UniProt P09619).
T2 construct: made in house
In words: Competition binding assay, PDGFRβ Kd. As to conditions: competition binding. The essentials: as §1

Experiment [1] concerns the target kinase panel containing either 386 or 392 distinct kinases. In words: Kinase selectivity score S10 from competition binding panel. As to conditions: 10 μM, panel of 386 or 392 distinct kinases. In short, it runs like this:
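S10 is the number of kinases with percent-of-control under 10, divided by all distinct wild-type kinases tested, from a single 10 μM concentration. Binding measured by qPCR of kinase recovered from ligand-coated beads after 1 h equilibrium at room temperature; kinases were phage fusions or DNA-tagged HEK-293 products.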

T2 sequence (P09619 33-1106): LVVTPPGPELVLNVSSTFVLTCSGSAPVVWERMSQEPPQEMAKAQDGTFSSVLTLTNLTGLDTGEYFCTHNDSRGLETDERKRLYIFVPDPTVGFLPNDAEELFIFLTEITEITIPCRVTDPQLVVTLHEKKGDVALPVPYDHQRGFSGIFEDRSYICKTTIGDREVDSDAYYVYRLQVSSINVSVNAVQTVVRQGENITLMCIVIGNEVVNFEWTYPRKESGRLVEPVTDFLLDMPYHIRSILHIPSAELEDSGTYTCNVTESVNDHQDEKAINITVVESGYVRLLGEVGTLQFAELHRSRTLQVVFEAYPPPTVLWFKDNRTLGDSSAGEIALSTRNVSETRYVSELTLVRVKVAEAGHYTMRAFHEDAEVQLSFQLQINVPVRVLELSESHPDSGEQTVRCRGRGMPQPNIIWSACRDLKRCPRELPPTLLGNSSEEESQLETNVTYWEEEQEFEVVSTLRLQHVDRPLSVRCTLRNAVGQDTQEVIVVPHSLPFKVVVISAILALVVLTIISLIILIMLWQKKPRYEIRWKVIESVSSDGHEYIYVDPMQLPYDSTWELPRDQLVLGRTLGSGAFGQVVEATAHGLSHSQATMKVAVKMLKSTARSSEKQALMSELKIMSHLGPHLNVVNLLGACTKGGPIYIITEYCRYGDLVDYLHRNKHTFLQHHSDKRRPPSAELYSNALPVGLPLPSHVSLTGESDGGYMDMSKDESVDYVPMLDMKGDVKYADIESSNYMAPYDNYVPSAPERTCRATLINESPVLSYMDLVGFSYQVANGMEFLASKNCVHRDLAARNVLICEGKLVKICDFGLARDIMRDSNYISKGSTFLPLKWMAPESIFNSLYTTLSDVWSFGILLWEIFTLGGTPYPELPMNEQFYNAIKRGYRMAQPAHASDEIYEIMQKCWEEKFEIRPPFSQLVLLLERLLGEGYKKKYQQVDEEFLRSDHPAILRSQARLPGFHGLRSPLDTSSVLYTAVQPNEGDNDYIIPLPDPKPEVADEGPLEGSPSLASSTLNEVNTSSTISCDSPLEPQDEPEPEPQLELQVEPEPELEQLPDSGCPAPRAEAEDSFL

Consider `Cc1ccc2c(c1)ncn2Cc1ccc2nc(N[C@@H]3CCCC[C@H]3O)sc2c1` [Example 127, (1R,2R)-2-((6-((5-methyl-1H-benzo[d]imidazol-1-yl)methyl)benzo[d]thiazol-2-yl)amino)cyclohexanol], for which the Kd was 1000 to 5000 nM on FLT3 and not above 50 nM at PDGFRβ. For the same compound, in experiment [1], the “Kinase specificity S(10)” value is reported as “A (A≤0.01)”.
For `CC(O)c1cnc2c(c1)ncn2Cc1ccc2nc(N[C@@H]3CCCC[C@H]3O)sc2c1` (stereo partly drawn) [Example 115, (1R,2R)-2-((6-((6-((R,S)-1-hydroxyethyl)-3H-imidazo[4,5-b]pyridin-3-yl)methyl)benzo[d]thiazol-2-yl)amino)cyclohexanol] the same measures were 1000 to 5000 nM, 50 to 500 nM and “A (A≤0.01)”.
`O[C@@H]1[C@H](O)CCC[C@H]1Nc1nc2ccc(Cn3cnc4cc(N5CCOCC5)ccc43)cc2s1` [Example 235, (1R,2S,3R)-3-((6-((5-morpholino-1H-benzo[d]imidazol-1-yl)methyl)benzo[d]thiazol-2-yl)amino)cyclohexane-1,2-diol]: the dissociation constant (Kd) on FLT3 was 200 to 1000 nM; at PDGFRβ, not above 50 nM. Further, in experiment [1], the “Kinase specificity S(10)” value was “A (A≤0.01)”.
Take `O[C@@H]1CCCC[C@H]1Nc1nc2ccc(Cc3cnc4cc(-n5cncn5)ccn34)cc2s1` [Example 169, (1R,2R)-2-((6-((7-(1H-1,2,4-triazol-1-yl)imidazo[1,2-a]pyridin-3-yl)methyl)benzo[d]thiazol-2-yl)amino)cyclohexanol]: the Kd lay in the range of 1000 to 5000 nM at FLT3 and 50 to 500 nM on PDGFRβ. In experiment [1], the “Kinase specificity S(10)” value is on record as “A (A≤0.01)”.
In the case of `O[C@@H]1CCCC[C@H]1Nc1nc2c(Cl)cc(Cc3cnc4ccc(N5CCOCC5)nn34)cc2s1` [Example 156, (1R,2R)-2-((4-chloro-6-((6-morpholinoimidazo[1,2-b]pyridazin-3-yl)methyl)benzo[d]thiazol-2-yl)amino)cyclohexanol], the Kd is 1000 to 5000 nM on FLT3 and 500 to 2000 nM at PDGFRβ. In experiment [1], the “Kinase specificity S(10)” value was “A (A≤0.01)”.
For `CC(=O)c1ccc2ncn(Cc3ccc4nc(N[C@@H]5CCCC[C@H]5O)sc4c3)c2c1` [Example 120, 1-(1-((2-(((1R,2R)-2-hydroxycyclohexyl)amino)benzo[d]thiazol-6-yl)methyl)-1H-benzo[d]imidazol-6-yl)ethanone] the same measures were 1000 to 5000 nM, 50 to 500 nM and “B (0.01<B≤0.02)”.
Taken in the same sequence, the figures for `O[C@@H]1CCCC[C@H]1Nc1nc2ccc(Cn3cnc4cc(-n5cccn5)cnc43)cc2s1` [Example 141, (1R,2R)-2-((6-((6-(1H-pyrazol-1-yl)-3H-imidazo[4,5-b]pyridine-3-yl)methyl)benzo[d]thiazol-2-yl)amino)cyclohexanol] were 200 to 1000 nM, not above 50 nM and “B (0.01<B≤0.02)”.
For `O[C@@H]1CCCC[C@H]1Nc1nc2ccc(Cn3cnc4cc(-n5cncn5)cnc43)cc2s1` [Example 145, (1R,2R)-2-((6-((6-(1H-1,2,4-triazol-1-yl)-3H-imidazo[4,5-b]pyridin-3-yl)methyl)benzo[d]thiazol-2-yl)amino)cyclohexanol], the Kd is 1000 to 5000 nM at FLT3 and not above 50 nM on PDGFRβ. Further, the “Kinase specificity S(10)” value in experiment [1] is “A (A≤0.01)”.
Taken in the same sequence, the figures for `COc1ccc2ncc(Cc3ccc4nc(N[C@@H]5CCCC[C@H]5O)sc4c3)n2c1` [Example 165, (1R,2R)-2-((6-((6-methoxyimidazo[1,2-a]pyridin-3-yl)methyl)benzo[d]thiazol-2-yl)amino)cyclohexanol] were more than 5000 nM, 500 to 2000 nM and “A (A≤0.01)”.
Consider `C#Cc1ccc2c(c1)ncn2Cc1ccc2nc(N[C@@H]3CCCC[C@H]3O)sc2c1` [Example 121, (1R,2R)-2-((6-((5-ethynyl-1H-benzo[d]imidazol-1-yl)methyl)benzo[d]thiazol-2-yl)amino)cyclohexanol], for which the Kd at FLT3 lay in the range of 1000 to 5000 nM; on PDGFRβ, 50 to 500 nM. Besides, the “Kinase specificity S(10)” value in experiment [1] is reported as “A (A≤0.01)”.
For `N#Cc1ccc2ncc(Cc3ccc4nc(N[C@@H]5CCCC[C@H]5O)sc4c3)n2n1` [Example 221, 3-((2-(((1R,2R)-2-hydroxycyclohexyl)amino)benzo[d]thiazol-6-yl)methyl)imidazo[1,2-b]pyridazine-6-carbonitrile] the same measures were not above 200 nM, not above 50 nM and “B (0.01<B≤0.02)”.
For `CCOc1ccc2c(c1)ncn2Cc1ccc2nc(N[C@@H]3CCCC[C@H]3O)sc2c1` [Example 138, (1R,2R)-2-((6-((5-ethoxy-1H-benzo[d]imidazol-1-yl)methyl)benzo[d]thiazol-2-yl)amino)cyclohexanol] the same measures were 200 to 1000 nM, not above 50 nM and “A (A≤0.01)”.
For `COc1ccc2c(c1)ncn2Cc1ccc2nc(N[C@@H]3CCCC[C@H]3O)oc2c1` [Example 151, (1R,2R)-2-((6-((5-methoxy-1H-benzo[d]imidazol-1-yl)methyl)benzo[d]oxazol-2-yl)amino)cyclohexanol] the same measures were 200 to 1000 nM, not above 50 nM and “B (0.01<B≤0.02)”.
Consider `O[C@@H]1CCCC[C@H]1Nc1nc2ccc(Cn3cnc4cc(F)c(F)cc43)cc2s1` [Example 128, (1R,2R)-2-((6-((5,6-difluoro-1H-benzo[d]imidazol-1-yl)methyl)benzo[d]thiazol-2-yl)amino)cyclohexanol], for which the Kd at FLT3 is more than 5000 nM; on PDGFRβ, 50 to 500 nM. The “Kinase specificity S(10)” value in experiment [1] is “B (0.01<B≤0.02)”.
For `O[C@@H]1CCCC[C@H]1Nc1nc2ccc(Cn3cnc4cc(F)cnc43)cc2o1` [Example 132, (1R,2R)-2-((6-((6-fluoro-3H-imidazo[4,5-b]pyridin-3-yl)methyl)benzo[d]oxazol-2-yl)amino)cyclohexanol] the same measures were not above 200 nM, not above 50 nM and “C (C>0.02)”.
Turning to `N#Cc1ccc2c(c1)ncn2Cc1ccc2nc(N[C@@H]3CCCC[C@H]3O)oc2c1` [Example 170, 1-((2-(((1R,2R)-2-hydroxycyclohexyl)amino)benzo[d]oxazol-6-yl)methyl)-1H-benzo[d]imidazole-5-carbonitrile], the Kd at FLT3 was more than 5000 nM; at PDGFRβ it was 500 to 2000 nM. The “Kinase specificity S(10)” value in experiment [1] is “A (A≤0.01)”.
Turning to `OCCOc1ccc2c(c1)ncn2Cc1ccc2nc(N[C@@H]3CCCC[C@H]3O)sc2c1` [Example 172, (1R,2R)-2-((6-((5-(2-hydroxyethoxy)-1H-benzo[d]imidazol-1-yl)methyl)benzo[d]thiazol-2-yl)amino)cyclohexanol], the Kd was 200 to 1000 nM at FLT3 and 50 to 500 nM at PDGFRβ. In addition, the “Kinase specificity S(10)” value in experiment [1] was “B (0.01<B≤0.02)”.
Taken in the same sequence, the figures for `O[C@@H]1CCCC[C@H]1Nc1nc2ncc(Cn3cnc4cccnc43)cc2s1` [Example 114, (1R,2R)-2-((6-((3H-imidazo[4,5-b]pyridine-3-yl)methyl)thiazolo[4,5-b]pyridine-2-yl)amino)cyclohexanol] were 1000 to 5000 nM, 500 to 2000 nM and “A (A≤0.01)”.
Taken in the same sequence, the figures for `CS(=O)(=O)c1ccc2c(c1)ncn2Cc1ccc2nc(N[C@@H]3CCCC[C@H]3O)sc2c1` [Example 112, (1R,2R)-2-((6-((5-(methylsulfonyl)-1H-benzo[d]imidazol-1-yl)methyl)benzo[d]thiazol-2-yl)amino)cyclohexanol] were 1000 to 5000 nM, 500 to 2000 nM and “A (A≤0.01)”.
Taken in the same sequence, the figures for `Fc1cnc2c(c1)ncn2Cc1ccc2nc(N[C@H]3C=CCCC3)sc2c1` [Example 176, (R)—N-(cyclohex-2-en-1-yl)-6-((6-fluoro-3H-imidazo[4,5-b]pyridin-3-yl)methyl)benzo[d]thiazol-2-amine] were 1000 to 5000 nM, 50 to 500 nM and “B (0.01<B≤0.02)”.
`OC[C@H]1CCCC[C@H]1Nc1nc2ccc(Cn3cnc4cc(Br)cnc43)cc2s1` [Example 136, ((1S,2R)-2-((6-((6-bromo-3H-imidazo[4,5-b]pyridin-3-yl)methyl)benzo[d]thiazol-2-yl)amino)cyclohexyl)methanol]: the equilibrium dissociation constant (Kd) was 1000 to 5000 nM at FLT3 and not above 50 nM at PDGFRβ. Moreover, the “Kinase specificity S(10)” value in experiment [1] is listed as “B (0.01<B≤0.02)”.

One may read the Kd as the constant that tells how readily two partners part at equilibrium. A low value points to higher affinity.
